Among the data in PubChem BioAssay AID1259407 (Chemical Carcinogenesis Research Information System (CCRIS), 2018) are mutagenic call values, retold here.

The test system of the data set is CCRIS mutagenicity, Ames/micronucleus/aberration tests. As to the kind of experiment: CCRIS mutagenicity studies.
[1] abbreviates: Test System: AMES SALMONELLA TYPHIMURIUM, Strain/Indicator: TA98, Metabolic Activation: NONE, Method: PREINCUBATION
The mark [2] stands for this setting: Test System: AMES SALMONELLA TYPHIMURIUM, Strain/Indicator: TA100, Metabolic Activation: NONE, Method: PREINCUBATION
[3] abbreviates: Test System: AMES SALMONELLA TYPHIMURIUM, Strain/Indicator: TA102, Metabolic Activation: NONE, Method: PREINCUBATION
Where [4] appears, read: Test System: AMES SALMONELLA TYPHIMURIUM, Strain/Indicator: TA104, Metabolic Activation: NONE, Method: PREINCUBATION
Setting [5] is: Test System: AMES SALMONELLA TYPHIMURIUM, Strain/Indicator: TA97, Metabolic Activation: NONE, Method: PREINCUBATION
Where [6] appears, read: Test System: AMES SALMONELLA TYPHIMURIUM, Strain/Indicator: TA97, Metabolic Activation: RAT, LIVER, S-9, AROCLOR 1254, Method: PREINCUBATION
Where [7] appears, read: Test System: AMES SALMONELLA TYPHIMURIUM, Strain/Indicator: TA102, Metabolic Activation: RAT, LIVER, S-9, AROCLOR 1254, Method: PREINCUBATION
[8] abbreviates: Test System: AMES SALMONELLA TYPHIMURIUM, Strain/Indicator: TA100, Metabolic Activation: NONE, Method: STANDARD PLATE.
Setting [9] is: Test System: CHINESE HAMSTER V-79, Strain/Indicator: V-79/6-THIOGUANINE, Metabolic Activation: NONE, Method: STANDARD PLATE.

Calls of active or inactive are those of the source. The rule behind the calls is not given here.

With `OCC(CO)(CO)CO`, the mutagenic call was “inactive; negative” under setting [1]; “inactive; negative” (Test System: AMES SALMONELLA TYPHIMURIUM, Strain/Indicator: TA98, Metabolic Activation: RAT, LIVER, S-9, KC 500, Method: PREINCUBATION); “inactive; negative” (Test System: AMES SALMONELLA TYPHIMURIUM, Strain/Indicator: TA98, Metabolic Activation: RAT, LIVER, S-9, SODIUM PHENOBARBITAL AND 5,6-BENZOFLAVONE, Method: PREINCUBATION); “inactive; negative” under setting [2]; “inactive; negative” (Test System: AMES SALMONELLA TYPHIMURIUM, Strain/Indicator: TA100, Metabolic Activation: RAT, LIVER, S-9, KC 500, Method: PREINCUBATION); “inactive; negative” (Test System: AMES SALMONELLA TYPHIMURIUM, Strain/Indicator: TA100, Metabolic Activation: RAT, LIVER, S-9, SODIUM PHENOBARBITAL AND 5,6-BENZOFLAVONE, Method: PREINCUBATION). For the same compound, the mutagenic call under setting [3] is “inactive; negative”; the mutagenic call (Test System: AMES SALMONELLA TYPHIMURIUM, Strain/Indicator: TA102, Metabolic Activation: RAT, LIVER, S-9, SODIUM PHENOBARBITAL AND 5,6-BENZOFLAVONE, Method: PREINCUBATION) is “inactive; negative”; the mutagenic call under setting [4] was “inactive; negative”; the mutagenic call (Test System: AMES SALMONELLA TYPHIMURIUM, Strain/Indicator: TA104, Metabolic Activation: RAT, LIVER, S-9, SODIUM PHENOBARBITAL AND 5,6-BENZOFLAVONE, Method: PREINCUBATION) is “inactive; negative”; the mutagenic call (Test System: AMES SALMONELLA TYPHIMURIUM, Strain/Indicator: TA1535, Metabolic Activation: NONE, Method: PREINCUBATION) was “inactive; negative”; the mutagenic call (Test System: AMES SALMONELLA TYPHIMURIUM, Strain/Indicator: TA1535, Metabolic Activation: RAT, LIVER, S-9, KC 500, Method: PREINCUBATION) was “inactive; negative”. Moreover, the mutagenic call is “inactive; negative” (Test System: AMES SALMONELLA TYPHIMURIUM, Strain/Indicator: TA1535, Metabolic Activation: RAT, LIVER, S-9, SODIUM PHENOBARBITAL AND 5,6-BENZOFLAVONE, Method: PREINCUBATION); “inactive; negative” (Test System: AMES SALMONELLA TYPHIMURIUM, Strain/Indicator: TA1537, Metabolic Activation: NONE, Method: PREINCUBATION); “inactive; negative” (Test System: AMES SALMONELLA TYPHIMURIUM, Strain/Indicator: TA1537, Metabolic Activation: RAT, LIVER, S-9, KC 500, Method: PREINCUBATION); “inactive; negative” (Test System: AMES SALMONELLA TYPHIMURIUM, Strain/Indicator: TA1537, Metabolic Activation: RAT, LIVER, S-9, SODIUM PHENOBARBITAL AND 5,6-BENZOFLAVONE, Method: PREINCUBATION); “inactive; negative” (Test System: AMES SALMONELLA TYPHIMURIUM, Strain/Indicator: TA1538, Metabolic Activation: NONE, Method: PREINCUBATION); “inactive; negative” (Test System: AMES SALMONELLA TYPHIMURIUM, Strain/Indicator: TA1538, Metabolic Activation: RAT, LIVER, S-9, KC 500, Method: PREINCUBATION). For the same compound, the mutagenic call was “inactive; negative” (Test System: E. COLI, Strain/Indicator: WP2UVRA/PKM101, Metabolic Activation: NONE, Method: PREINCUBATION); “inactive; negative” (Test System: E. COLI, Strain/Indicator: WP2UVRA/PKM101, Metabolic Activation: RAT, LIVER, S-9, SODIUM PHENOBARBITAL AND 5,6-BENZOFLAVONE, Method: PREINCUBATION); “inactive; negative” (Test System: E. COLI, Strain/Indicator: WP2UVRA, Metabolic Activation: NONE, Method: PREINCUBATION); “inactive; negative” (Test System: E. COLI, Strain/Indicator: WP2 UVRA, Metabolic Activation: RAT, LIVER, S-9, KC 500, Method: PREINCUBATION); “inactive; negative” (Test System: E. COLI, Strain/Indicator: WP2UVRA, Metabolic Activation: RAT, LIVER, S-9, SODIUM PHENOBARBITAL AND 5,6-BENZOFLAVONE, Method: PREINCUBATION).
In the case of `CC(=O)c1ccc2ccccc2c1`, the mutagenic call is, setting by setting: under setting [5], “inactive; negative”; under setting [6], “inactive; negative”; under setting [3], “inactive; negative”; under setting [7], “inactive; negative”.
`CN(C)CCn1cc[n+](C)c1/C=N/O`: the mutagenic call runs as follows: (Test System: AMES SALMONELLA TYPHIMURIUM, Strain/Indicator: TA97, Metabolic Activation: NONE, Method: STANDARD PLATE) “inactive; negative”; (Test System: AMES SALMONELLA TYPHIMURIUM, Strain/Indicator: TA97, Metabolic Activation: S-9, Method: STANDARD PLATE) “inactive; negative”; under setting [8], “inactive; negative”; (Test System: AMES SALMONELLA TYPHIMURIUM, Strain/Indicator: TA100, Metabolic Activation: S-9, Method: STANDARD PLATE) “inactive; negative”; (Test System: AMES SALMONELLA TYPHIMURIUM, Strain/Indicator: TA104, Metabolic Activation: NONE, Method: STANDARD PLATE) “inactive; negative”; (Test System: AMES SALMONELLA TYPHIMURIUM, Strain/Indicator: TA104, Metabolic Activation: S-9, Method: STANDARD PLATE) “inactive; negative”. In addition, the mutagenic call (Test System: AMES SALMONELLA TYPHIMURIUM, Strain/Indicator: TA1537, Metabolic Activation: NONE, Method: STANDARD PLATE) is “inactive; negative”; the mutagenic call (Test System: AMES SALMONELLA TYPHIMURIUM, Strain/Indicator: TA1537, Metabolic Activation: S-9, Method: STANDARD PLATE) is “inactive; negative”; the mutagenic call (Test System: AMES SALMONELLA TYPHIMURIUM, Strain/Indicator: TA1538, Metabolic Activation: NONE, Method: STANDARD PLATE) was “inactive; negative”; the mutagenic call (Test System: AMES SALMONELLA TYPHIMURIUM, Strain/Indicator: TA1538, Metabolic Activation: S-9, Method: STANDARD PLATE) was “inactive; negative”.
As for `O[C@@H]1[C@H]2O[C@H]2c2c(ccc3c2ccc2ccccc23)[C@H]1O`, the mutagenic call by setting is: under setting [5], “active; positive”; under setting [1], “active; positive”; under setting [2], “active; positive”; under setting [4], “active; positive”; under setting [9], “active; positive”.
`Nc1nc2c(ncn2[C@@H]2O[C@H](COP(=O)(O)O)[C@@H](O)[C@H]2O)c(=O)[nH]1`: the mutagenic call under setting [5] was “inactive; negative”, the mutagenic call under setting [6] was “inactive; negative”, the mutagenic call under setting [3] was “inactive; negative” and the mutagenic call under setting [7] is “inactive; negative”.
As to `CC(C)=C[C@@H]1[C@@H](C(=O)OCc2coc(Cc3ccccc3)c2)C1(C)C`, the mutagenic call by setting is: (Test System: AMES SALMONELLA TYPHIMURIUM, Strain/Indicator: TA98, Metabolic Activation: NONE, Method: STANDARD PLATE) “inactive; negative”; (Test System: AMES SALMONELLA TYPHIMURIUM, Strain/Indicator: TA98, Metabolic Activation: RAT, LIVER, S-9, AROCLOR 1254, Method: STANDARD PLATE) “inactive; negative”; under setting [8], “inactive; negative”; (Test System: AMES SALMONELLA TYPHIMURIUM, Strain/Indicator: TA100, Metabolic Activation: RAT, LIVER, S-9, AROCLOR 1254, Method: STANDARD PLATE) “inactive; negative”; under setting [9], “inactive; negative”; (Test System: CHINESE HAMSTER V-79, Strain/Indicator: V-79/6-THIOGUANINE, Metabolic Activation: RAT HEPATOCYTES, Method: STANDARD PLATE) “inactive; negative”. For the same compound, the mutagenic call is, setting by setting: (Test System: CHINESE HAMSTER V-79, Strain/Indicator: V-79/OUABAIN, Metabolic Activation: NONE, Method: STANDARD PLATE) “inactive; negative”; (Test System: CHINESE HAMSTER V-79, Strain/Indicator: V-79/OUABAIN, Metabolic Activation: RAT HEPATOCYTES, Method: STANDARD PLATE) “inactive; negative”.
In the case of `Cc1cccc(OC(=O)N(C)N=O)c1`, the mutagenic call (Test System: E. COLI WP2, Strain/Indicator: WP2, Metabolic Activation: NONE, Method: STANDARD PLATE) is “active; positive”.
